Measurements: US20160030364A1, “Therapeutic Compositions and Uses Thereof” (MANUKA HEALTH NEW ZEALAND LIMITED, priority 2013, published 2016)
“And” between values parts separate entries of the source, which are not always exact repeats. Equal entries are not always repeated.

Columns and labels:
Assay type in all cases: cell-based
[1] = tested on: human colon cancer cell line (HCT-116); assay: MTT anti-proliferative assay, HCT-116 (Examples 3-12); conditions: 200 μg/ml; for % inhibition / % stim. / Mean OD (570 nm): 48 hours
Procedure: (§1) 5-phenylpenta-2,4-dienoic acid was assessed for its ability to modulate the viability and proliferation of human colorectal adenocarcinoma cells (DLD-1); human colon cancer cell line (HCT-116); human gastric carcinoma cell line (NCI-N87); and human oesophageal squamous cell carcinoma cell line (KYSE-30) as assessed by the MTT assay. The positive control, 5-fluorouracil (5-FU) was included at three concentrations; in addition to an unsupplemented cell control as a negative control in the study. The 5-phenylpenta-2,4-dienoic acid was a genuine standard with chemical structure confirmed by NMR and MS.
(§2) The four human gastrointestinal carcinoma cell lines were revived from cryostorage and cultured in the presence of the test and reference samples. An MTT assay was then performed on the cultures to determine the effect of the samples on the cell viability and proliferation.
(§3) The test sample 5-phenylpenta-2,4-dienoic acid, and all other test samples in Examples 4-12 (except tectochrysln) were Initially dissolved in pure ethanol to a concentration of around 13.35 mg/ml. Tectochrysin was initially dissolved in triethylene glycol mono-methyl ether to the same concentration. Working solutions were then prepared from the stock solutions by dilution to 15% ethanol/Hanks Balanced Salt Solution (ETOH)/HBSS to a concentration of 2 mg/mL solids. In the assay the final concentration of the samples was 200 μg/ml with a final EtOH concentration of 1.5%. Final concentrations of test compounds and propolis prepared as above are as noted in Example 3.
(§4) • 1. Human colorectal adenocarcinoma cells (ATCC CCI-221, DLD-1)(ATCC, Bethesda, Md., USA) • 2. Human gastric carcinoma cells (ATCC CRL-5822, NCI-N87)(ATCC, Bethesda, Md., USA) • 3. Human oesophageal squamous cell carcinoma (ECACC, KYSE-30)(Sigma Aldrich, Auckland, NZ) • 4. Human colon carcinoma cells (ECACC HCT-116)(Sigma Aldrich, Auckland, NZ) • 5. Penicillin-streptomycin solution: 10000 units/ml penicillin, 10 mg/ml streptomycin in 0.9% NaCl (Sigma Cat #P-0781). Stored at −20° C. • 6. For DLD-1 cells: DMEM culture medium (Invitrogen Cat #12100-046). Stored at 4° C. • 7. For NCI-N87 cells: RPMI-1640 medium modified to contain 2 mM L-glutamine, 10 mM HEPES, 1 mM sodium pyruvate, 4500 mg/L glucose, and 1500 mg/L sodium bicarbonate (Sigma R6504). Stored at 4° C. • 8. For KYSE-410 cells: RPMI-1640 medium modified to contain 2 mM L-glutamine (Sigma R6504). Stored at 4° C. • 9. For HCT-116 cells: McCoy's 5A medium modified to contain 2 mM L-glutamine (Sigma M48792). Stored at 4° C. • 10. Trypsin-EDTA solution: 0.25% Trypsin/EDTA, Invitrogen Cat#15400054 (×10 in stock). • 11. Phosphate buffered saline (PBS) (Prepared by TBL). • 12. Hanks Balanced Salt Solution (HBSS). (GIBCO Cat No. 14185-052). Stored at 4° C. • 13. Foetal Bovine Serum (GIBCO Cat #10091-148). Stored at −20° C. • 14. MTT Reagent: 100 mg/vial, (SIGMA Cat. No. M-2128) dissolved in PBS at 10 mg/ml and stored at −20° C. 5 mg/ml MTT solution will be prepared in PBS and stored at 4° C. as working solution. • 15. MTT lysis buffer: 10% sodium dodecyl sulphate (SDS)/45% Dimethyl Formamide (20 g SDS will be dissolved in 100 ml of double-distilled water (DDW), and 90 ml of Dimethyl Formamide will be added to the SDS solution). The pH will be adjusted to 4.7 by glacial acetic acid, and DDW added up to a final volume of 200 ml. • 16. 5-Fluorouracil (5-FU), (Sigma Cat. No. F-6627). Three working solutions will be prepared at 19.5 μg/ml. 6.5 μg/ml and 1.95 μg/ml dissolved in 15% Ethanol/HBSS. Final concentrations will be 1.95 μg/ml (15 μM), 0.65 μg/ml (5 μM) and 0.195 μg/ml (1.5 μM).
(§5) The medium for the propagation of the each of the cells lines is given above. Each medium was prepared following the ATCC/ECACC instructions and supplemented with penicillin-streptomycin solution (10 ml per litre). FBS (at 10%) was added just before use.
• 1. […]

[2] = tested on: human oesophageal squamous cell carcinoma cell line (KYSE-30); assay: MTT anti-proliferative assay, KYSE-30 (Examples 3-13)
[3] = tested on: human gastric carcinoma cell line (NCI-N87); assay: MTT anti-proliferative assay, NCI-N87 (Examples 3-12); conditions: 200 μg/ml; for % inhibition / % stim. / Mean OD (570 nm): 48 hours
Procedure: as §1, §2, §3, §4, §5
• 1. […]

[4] = tested on: human oesophageal squamous cell carcinoma cell line (KYSE-30); assay: MTT anti-proliferative assay, KYSE-30 (Examples 3-13); conditions: Examples 3-12, 200 μg/ml, 48 hours
Procedure: as §1, §2, §3, §4, §5
• 1. […]

[5] = tested on: human colorectal adenocarcinoma cells (DLD-1); assay: MTT anti-proliferative assay, DLD-1 (Examples 3-12); conditions: 200 μg/ml; for % inhibition / % stim. / Mean OD (570 nm): 48 hours
Procedure: as §1, §2, §3, §4, §5
• 1. […]

[6] = listed as 1,1-dimethylallylcaffeic acid

| Compound | % inhibition [1] | % stim. [1] [%] | Mean OD (570 nm) [1] | % inhibition [3] | % stim. [3] [%] | Mean OD (570 nm) [3] | % inhibition [4] | % stim. [4] [%] | Mean OD (570 nm) [4] | % inhibition [5] | % stim. [5] [%] | Mean OD (570 nm) [5] | also measured |
| --- | --- | --- | --- | --- | --- | --- | --- | --- | --- | --- | --- | --- | --- |
| 1,1-dimethylallyl caffeic acid | 96.73% | 0 | 0.0166 | 86.74% | 0 | 0.0586 | 97.8% | 0 | 0.0133 | 93.24% | 0 | 0.0279 | % inhibition [1, 6]: 86.7%; % inhibition ([2]; Example 13, 100 μg/ml): 88.63%; Mean OD (570 nm) ([2]; Example 13, 100 μg/ml): 0.0381; % inhibition [3, 6]: 86.7%; % inhibition [5, 6]: 93.2% |
| C=C(C)CCOC(=O)C=Cc1ccc(O)c(O)c1 [3-methyl-3-butenyl caffeate, 3-methyl-3-butenyl caffeic acid] | 96.0% and 96.03% | 0 | 0.0202 | 84.5% and 84.54% | 0 | 0.0683 | 96.3% and 96.31% | 0 | 0.0222 | 91.6% and 91.63% | 0 | 0.0345 | % inhibition ([2]; Example 13, 10 μg/ml): 39.3% and 39.33%; Mean OD (570 nm) ([2]; Example 13, 10 μg/ml): 0.2034 |
| COc1cc(/C=C/C(=O)OCc2ccccc2)ccc1O [benzyl ferulate] | 95.92% | 0 | 0.0207 | 86.96% | 0 | 0.0576 | 98.62% | 0 | 0.0083 | 86.02% | 0 | 0.0576 | inhibition at 200 µg/mL ([1]; Homo sapiens, HCT-116, 48 h): 95.9%; Mean OD (570 nm) ([2]; Example 13, 50 μg/ml): 0.0398; inhibition at 50 µg/mL ([2]; Homo sapiens, KYSE-30, Example 13, 50 μg/ml): 88.1%; inhibition at 200 µg/mL ([3]; Homo sapiens, NCI-N87, 48 h): 87%; inhibition at 200 µg/mL ([4]; Homo sapiens, KYSE-30, 48 h): 98.6%; inhibition at 200 µg/mL ([5]; Homo sapiens, DLD-1, 48 h): 86% |
